Data reported in patent publication US11433136B2, “Polyacetal polymers, conjugates, particles and uses thereof” (THE GENERAL HOSPITAL CORPORATION, priority 2015, dated 2022).
Values belong to the compound of their own block, whether it stands above or below them.

Experiments:
[1] = molecular target: CXCR4 (Homo sapiens, UniProt P61073); conditions: cited from earlier work
[2] = tested on: leiomyoma cell; conditions: cultured cells; cited from earlier work
[3] = tested on: fibroblast growth and collagen synthesis; conditions: cited from earlier work
[4] = tested on: human malignant glioma cells; conditions: cited from earlier work
[5] = mouse, in vivo, po, 10 mg/kg
Experimental: The purpose of this single-dose PK study was to evaluate the in vivo drug release of Can-DPC in 4T1 tumor bearing animals by collecting whole blood, tumor, and liver tissue for bioanalytical quantification of polymer-conjugated and released drug (i.e., candesartan). In this example, the Can-DPC formulation (10 mg/kg) was administrated intravenously as a single bolus and compared directly with the PK profile of candesartan cilexetil administrated by oral gavage (10 mg/kg) using 0.5% HPMC as a vehicle (Table 5).
The mammary fat pads of Balb/C female mice (6-8 weeks old; Taconic) were implanted with syngeneic 4T1 mouse tumor cells (150,000 cells/per animal) obtained from ATCC. Tumors were allowed to develop for 10 days, reaching an average size of 150-450 mm^3 (caliper measurements), before the mice were randomized into three dose groups (Table 5). Following a single administration of the test agents (10 mg/kg) or vehicle alone, whole blood, tumor, and liver tissues were collected at 2, 24, 48 and 144 hrs post dose. In addition, intermediate submandibular bleeds (˜100 μL whole blood) were collected at 5 min, 30 min, 4 hrs, and 6 hrs (n=3 animals per timepoint) following the i.v. and p.o. dosing. […]

CXCR4, sequence (P61073 whole entry, species assumed): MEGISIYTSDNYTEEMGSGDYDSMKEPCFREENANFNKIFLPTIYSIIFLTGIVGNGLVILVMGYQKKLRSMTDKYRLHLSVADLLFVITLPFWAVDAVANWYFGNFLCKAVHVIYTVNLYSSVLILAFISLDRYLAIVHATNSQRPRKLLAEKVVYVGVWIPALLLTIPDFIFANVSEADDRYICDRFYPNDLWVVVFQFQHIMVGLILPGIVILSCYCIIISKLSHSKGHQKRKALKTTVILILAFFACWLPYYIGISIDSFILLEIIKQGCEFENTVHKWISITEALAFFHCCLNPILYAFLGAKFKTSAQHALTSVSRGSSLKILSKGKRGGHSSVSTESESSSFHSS

Compound: c1cc(CN2CCCNCCNCCCNCC2)ccc1CN1CCCNCCNCCCNCC1 [AMD3100, 1,1′-[1,4-phenylene-bis(methylene)]-bis-1,4,8,11-tetraazacyclotetradecane]
fibrosis [1]: can reduce fibrosis

Compound: Cc1ccc(=O)n(-c2ccccc2)c1 [PFD, 5-methyl-1-phenyl-2(1H)-pyridone]
leiomyoma cell proliferation and collagen production [2]: reduce leiomyoma cell proliferation and collagen production in cultured cells | fibroblast growth and collagen synthesis [3]: inhibitory effect on fibroblast growth and collagen synthesis | TGF-b expression [4]: reduce TGF-b expression in human malignant glioma cells

candesartan in liver [5]: non-detectable
Compound: CCOc1nc2cccc(C(=O)OC(C)OC(=O)OC3CCCCC3)c2n1Cc1ccc(-c2ccccc2-c2nn[nH]n2)cc1 (centres unmarked) [candesartan cilexetil]
